Key:
[1] = tested on: S. sonnei, L. monocytogenes, E. coli, S. enteritidis, P. aeruginosa, C. jejuni; assay: Mean % reduction from control over the six organisms (Example 3); type: cell-based; details: pH 8
Procedure: This group of tests was conducted to determine the effect of Clorox® bleach, Aquatize® biocide, and 1,3-dibromo-5,5-dimethylhydantoin (DBDMH) on carcass bacteria (Escherichia coli field strain) residual after 1,5-hour in a chill tank “soup”. Tests were conducted with soups at pH 7, pH 8 and pH 9 (adjusted by trisodium phosphate) for whole bird bacteria counts. Tests at pH 8 were conducted for individual bacteria counts.
In general the tests involved normal processing of 56-day-old birds and immersing the carcasses first in a warm bath containing 10^4 per mL Escherichia coli, 10^4 per mL Salmonella enteritidis, 10^4 per mL Pseudomonas aeruginosa, 10^4 per mL Campylobacter jejuni, and 10^4 per mL spoilage bacteria each from […] strains (Listeria monocytogenes and Shigella sonnei). The carcasses were then immersed in a chill tank “soup”, containing normal organic fluids (blood, fat, skin, and meat particles) and containing the microbiocides on the test.
The procedure used for whole bird wash sampling was as follows: • 1. All samples were kept at ≦50 degrees Fahrenheit following collection. • 2. Microbiological analyses of samples began within 24 hours of sample collection. • 3. Information on the individual sample identification, date of collection, time of collection (phase during shift), treatment group and location of sample point were recorded on each sample bottle. • 4. […]

[2] = tested on: planktonic HPC (heterotrophic plate count) bacteria; assay: HPC bacteria eradication in planktonic form, PVC sampling pipes; type: cell-based
Excerpt: In another group of tests, the results of which are depicted in FIGS. 5 through 10, several bromine-based microbiocides of this invention were utilized in tests illustrating their effectiveness in eradicating or controlling Heterotrophic Plate Count bacteria i.e., a mixture of naturally-occurring pathogenic bacteria of various unidentified species. These bacteria were challenged both in the form of biofilms and in planktonic form.
The experimental conditions utilized in these tests involved use of an apparatus consisting of three parallel transparent PVC sampling pipes. These pipes were used for collection of biofilm (i.e., sessile or surface attached) bacteria samples; one as control pipe, one for a relatively low biocide concentration and the third for a higher biocide concentration. The biocide challenge in each case was divided into three phases. First was a 14-day inoculation. Next was a 48-hour disinfection period. Finally a 2-week recovery period was provided. The biocide under test was slug-dosed and during the first hour of exposure, the concentration was adjusted to achieve the desired concentration level.
The source of the naturally-grown heterotrophic plate count (HPC) bacteria was sediment and associated water collected from the recirculating hot water system of a hospital. […]

## CC1(C)C(=O)N(Br)C(=O)N1Br [DBDMH, 1,3-dibromo-5,5-dimethylhydantoin]
[1]; 10 ppm
  Mean % Reduction From Control: 85.8%
[1]; 20 ppm
  Mean % Reduction From Control: 98.8%
[2]; 0.5 ppm as bromine, within three hours
  planktonic HPC bacteria eradicated: ~99%
[2]; 5 ppm as bromine, within twelve hours
  planktonic HPC bacteria eradicated: ~99.99%

— patent US7767240B2, “Microbiological control in poultry processing” (priority 2001, dated 2010)
